Tests used:
[1] = test system: primary human dermal fibroblasts (HDF); experiment: Fibroblast proliferation assay (2D) in the presence of wound exudate; type: cell-based
Method: Primary human dermal fibroblasts (HDF) were purchased from CELLnTEC, Bern. They were routinely grown in Dulbecco's modified Eagle's medium (DMEM) containing 10% FCS, 2 mM glutamine, and 100 U/ml penicillin/100 μg/ml streptomycin. Media, antibiotics, and glutamine were bought from Lonza. The cells were used at passage 5-15. Cells were trypsinized and seeded at 2500 cells/well in 30 μl into the inner wells of 384-well plates in the absence or presence of graded compound concentrations with or without different dilutions of sterile-filtered WE in medium. For control samples, 30 μl medium was added instead of specific stimuli. The outer wells were loaded with sterile water. The cells were incubated for 72 hours at 37° C.
At the end of the incubation period, supernatants were removed for the determination of IL-1β, and the cells were fixed with 4% paraformaldehyde (Morphisto) for 15 minutes at room temperature and washed 3 times with PBS. A control plate was fixed after the overnight adherence of the cells (day 1) to determine the starting cell number.
Total cellular protein was determined as a measure of cell number by staining the fixed cells with sulforhodamine B (SRB, Sigma). A 0.4% SRB solution in 1% acetic acid was added to the wells for 30 minutes. The wells were then washed with 1% acetic acid until the wash solution remained colorless. After drying, the dye was eluted with 10 mM Tris-HCl, pH8.5, and absorbance was measured either at 550 or 492 nm for lower and higher cell densities, respectively. The average absorbance of the sample representing the day 1 starting cell number was subtracted from the absorbance values of the WE-treated cells.
All experiments were carried out in triplicate for each sample and concentration, and means±standard deviation (SD) were used for the evaluation of the experiment. Results are expressed as percentage of control values for unstimulated cells.

IL-8 = experiment: Primary human monocyte cytokine secretion assay (spontaneous IL-8); type: cell-based; details: 16 hours (FIG. 16B)
Method: Primary human monocytes were prepared from peripheral blood mononuclear cells (PBMC). PBMC were isolated from buffy coats obtained from the Red Cross, Vienna, using LymphoPrep (Technoclone). 30 ml of buffy concentrate was diluted 1:2 with PBS, gently underlayered with 15 ml Lymphoprep in a 50 ml Falcon tube and centrifuged for 25 minutes at 1800 rpm at 21° C. The interphase was carefully transferred to a new Falcon tube and filled up to 50 ml with ice cold PBS. After another centrifugation step (10 minutes, 1200 rpm, 4° C.), the cell pellet was washed 3 times with PBS, resuspended in RPMI medium containing 20% FCS and 10% DMSO and frozen in liquid nitrogen. Monocytes were generated from frozen aliquots using positive selection with the CD14 Beads-Kit (Miltenyi) on an autoMACS-Sorter (Miltenyi) according to the manufacturer's instructions.
Cells were seeded at 8×10^5/ml in 50 μl/well of a 384-well plate and combined cells with graded concentrations of test compounds. After 16 hours, the supernatants were transferred to fresh plates and frozen at −20° C. for IL-8 analysis, using a commercial ELISA kit.

SMILES: Cc1ccc2c(NC[C@](O)(CC(C)(C)c3cc(F)cc4c3OCC4)C(F)(F)F)cccc2n1 [Mapracorat]
- effect on fibroblast proliferation in the presence of >80 human wound exudates ([1]; >80 human wound exudates from chronic wound patients): > 120%
- fibroblast proliferation (2D) with wound exudate ([1]; WE-4 (FIG. 5), graded concentrations): dose-dependently reversed inhibition of wound exudate (WE)-induced fibroblast proliferation
- spontaneous IL-8 secretion in human monocytes (IL-8): inhibited both LPS-induced and spontaneous IL-8 secretion
